The term Kd denotes the equilibrium constant for the complex coming apart. As a reminder, the IC50 is the concentration that gives 50% inhibition. The low end stands for higher potency, the high end for lower potency.

Results on eight compounds are retold here after ChEMBL document CHEMBL3217619, “Design and synthesis of trans-2-substituted-cyclopropane-1-carboxylic acids as the first non-natural small molecule inhibitors of O-acetylserine sulfhydrylase” (Medchemcomm, 2012).

The nature of assay [1]: Binding affinity to Haemophilus influenzae OASS-A expressed in Escherichia coli assessed as dissociation constant by fluorometric analysis.
Assay [2] can be described thus: Competitive inhibition of Haemophilus influenzae OASS-A expressed in Escherichia coli using OAS/TNB as substrate by ping-pong analysis.
A short description of assay [3]: Binding affinity to Haemophilus influenzae OASS-A expressed in Escherichia coli using OAS/TNB as substrate assessed as dissociation constant.
Assay [4] in a line: Inhibition of Haemophilus influenzae OASS-A expressed in Escherichia coli using OAS/TNB as substrate by spectrophotometric analysis.

Turning to `CCOC(=O)[C@H]1C[C@@H]1C(=O)O` (racemic), in assay [1], the Kd was determined as 760 µM.

Take `CCOC(=O)[C@H]1C[C@H]1C(=O)O` (racemic): in assay [1], the Kd was 4700 µM.

For the compound `CC(C)OC(=O)[C@H]1C[C@@H]1C(=O)O` (racemic), the dissociation constant (Kd) in assay [1] was determined as 513 µM.

On to `CC(C)COC(=O)[C@H]1C[C@@H]1C(=O)O` (racemic), for which, in assay [1], the Kd was 950 µM.

Turning to `CCOC[C@H]1C[C@@H]1C(=O)O` (racemic), in assay [1], the dissociation constant (Kd) was 5.3 µM.

For the compound `CCCOC[C@H]1C[C@@H]1C(=O)O` (racemic), the Kd in assay [1] came out at 6.5 µM.

With `C/C=C/[C@H]1C[C@@H]1C(=O)O` (racemic), the IC50 in assay [2] was 600 µM; in assay [4], 700 µM. Moreover, the Kd in assay [3] is 200 µM; in assay [1], 1.46 µM.

On to `CC/C=C/[C@H]1C[C@@H]1C(=O)O` (racemic), for which, in assay [1], the Kd was found to be 21.5 µM.
